From publication PMC6685669, “Mapping the Structural Path for Allosteric Inhibition of a Short-Form ATP Phosphoribosyltransferase by Histidine” (Biochemistry, 2019)

Legend:
PaATPPRT [1] = target: T1, PaATPPRT (Psychrobacter arcticus, UniProt Q4FQF7+Q4FTX3); assay type: biochemical; conditions: ADP replacing ATP as substrate, 20 °C
T1 construct: made in house

Y263F-PaATPPRT = target: T2, Y263F-PaATPPRT (Psychrobacter arcticus, UniProt Q4FQF7+Q4FTX3, Y263F); assay: Y263F-PaHisZ-based PaATPPRT activity assay, initial rates with and without histidine; assay type: biochemical
T2 construct: made in house
Description: Replacement of tyrosine for phenylalanine at position 263 of PaHisZ was accomplished by the method of Liu and Naismith,[29] with primers 5′-[…]-3′ and 5′-[…]-3′. Successful mutation was confirmed by DNA sequencing (Eurofins Genomics). Y263F-PaHisZ was expressed and purified by the same protocol reported for wild-type (WT) PaHisZ.[20] ESI/MS analysis of the protein yielded a mass of 43068.9, exactly what would be expected by the loss of a hydroxyl group when compared with the mass of WT-PaHisZ.[20] Y263F-PaHisZ-based PaATPPRT was assayed for catalytic activity under initial rate conditions at 20 °C in the presence of 5.6 mM ATP and 2 mM PRPP and in the presence or absence of 320 μM histidine, along with other reaction components exactly as described for WT-PaATPPRT. Measurements were carried out in duplicate.

PaATPPRT [2] = target: T1, PaATPPRT; assay: PaATPPRT activity assay, initial rates (absorbance at 290 nm, PRATP formation), inhibition by histidine; assay type: biochemical; conditions: for Kii: linear regression of intercept replot of individually fitted double-reciprocal curves
Experimental: All assays were performed under initial rate conditions in the forward direction at 20 °C, in the presence or absence of histidine, as previously described[20] by monitoring the increase in absorbance at 290 nm due to the formation of PRATP (ε290 = 3600 M^–1 cm^–1)[23] in 1 cm path length quartz cuvettes (Hellma) in a Shimadzu UV-2600 spectrophotometer. Unless stated otherwise, for PaHisGS activity, the PaHisGS concentration was typically 2 μM, and for PaATPPRT activity, PaHisGS and PaHisZ concentrations were 0.28 and 15 μM, respectively. Reactions were started by addition of PRPP. Control reaction mixtures lacked either ATP, PRPP, PaHisGS, or PaHisZ. […] Initial rates were also measured with saturating concentrations of both substrates in the presence or absence of 4 mM TIH. All kinetic measurements were performed at least in duplicate unless stated otherwise.
The half-maximal inhibitory concentration of histidine was determined by measuring the initial rates for PaATPPRT (0.24 μM) in the presence of 5.6 mM ATP (or 5.6 mM ADP), 2 mM PRPP, and varying concentrations of histidine (0–320 μM). The inhibition mechanism was investigated by measuring the initial rates for PaATPPRT (0.28 μM) at saturating concentrations of one substrate and varying concentrations of the other, either ATP (0.2–2.8 mM) or PRPP (0.1–2.0 mM), with different concentrations of histidine (0–10 μM). In some instances, the lowest-concentration data point was an outlier in the double-reciprocal plot and was excluded from the fit.
Kinetic and DSF data were analyzed by the nonlinear regression function of SigmaPlot 13 (SPSS Inc.). Data points and error bars in graphs are represented as means ± the standard error, and kinetic and equilibrium constants are presented as means ± the fitting error. Substrate saturation data were fitted to eq 1. Inhibition data at fixed substrate concentrations were fitted to eq 2, and inhibition mechanism data were fitted to eq 3. In eqs 1–3, v is the initial rate, S is the concentration of the varying substrate, kcat is the steady-state turnover number, KM is the apparent Michaelis constant, ET is total enzyme concentration, vi is the initial rate in the presence of an inhibitor, IC50 is the half-maximal inhibitory concentration, h is the Hill slope, Kis is the slope inhibition constant, and Kii is the intercept inhibition constant. DSF thermal denaturation data were fitted to eq 4,[30] and PaHisZ–histidine complex equilibrium dissociation data were fitted to eq 5. In eqs 4 and 5, FU is the fraction unfolded, T is the temperature in degrees Celsius, Tm is the melting temperature, c is the slope of the transition region, LL and UL are folded and unfolded baselines, respectively, Tm0 is the Tm in the absence of histidine, Tm∞ is the Tm at an infinite histidine concentration, H is the histidine concentration, and KD is the apparent equilibrium dissociation constant for the PaHisZ–histidine complex.

PaHisZ = target: T3, PaHisZ (Psychrobacter arcticus, UniProt Q4FTX3); assay: Differential scanning fluorimetry (DSF), thermal denaturation of PaHisZ; assay type: binding
T3 construct: made in house
Experimental: DSF measurements (λex = 490 nm; λem = 610 nm) were performed in 96-well plates on a Stratagene Mx3005p instrument. Thermal denaturation of 9.4 μM PaHisZ was assayed (50 μL) in the presence of several histidine concentrations (0–8 mM) in 100 mM tricine, 100 mM KCl, 4 mM DTT, and 15 mM MgCl2 (pH 8.5). Sypro Orange (5×) (Invitrogen) was added to all wells. Thermal denaturation curves were recorded over a temperature range of 25–65 °C with 1 °C min^–1 increments. Control curves without the enzyme and were subtracted from curves with the enzyme. All measurements were carried out in quintuplicate.
Kinetic and DSF data were analyzed by the nonlinear regression function of SigmaPlot 13 (SPSS Inc.). Data points and error bars in graphs are represented as means ± the standard error, and kinetic and equilibrium constants are presented as means ± the fitting error. Substrate saturation data were fitted to eq 1. Inhibition data at fixed substrate concentrations were fitted to eq 2, and inhibition mechanism data were fitted to eq 3. […]

PaHisGS = test system: PaHisGS; design: method as in PMID 28092443; conditions: PaHisGS in the absence of PaHisZ; cited from earlier work
PaATPPRT [3] = target: T1, PaATPPRT; assay: Rapid kinetics (stopped-flow), approach to steady state in the PaATPPRT reaction; assay type: biochemical
Experimental: Rapid kinetics experiments were carried out under multiple-turnover conditions by monitoring the increase in absorbance at 290 nm upon PRATP formation at 20 °C in an Applied Photophysics SX-20 stopped-flow spectrophotometer outfitted with a 5 μL mixing cell (0.5 cm path length and 0.9 ms dead time). In all experiments, each syringe contained 100 mM tricine (pH 8.5), 100 mM KCl, 4 mM DTT, 15 mM MgCl2, and 10 μM MtPPase. For the approach to steady state in the PaATPPRT reaction, one syringe carried 38 μM PaATPPRT, 4 mM PRPP, and either 0 or 60 μM histidine, while the other carried 7 mM ATP and either 0 or 60 μM histidine. Reaction was triggered by rapidly mixing 55 μL from each syringe. The increase in absorbance was monitored in a split-time base for 1 s, with 2500 data points collected before 0.2 s and 2500 in the following 0.8 s. At least four traces were acquired for each reaction, and controls lacked PRPP. For initial rates of PaATPPRT and PaHisGS reactions, one syringe carried either 2–4 μM PaHisGS or 4 μM PaATPPRT, 4 mM PRPP, and either 0 or 1.28 mM histidine, while the other carried 11.2 mM ATP. Reaction was triggered by rapidly mixing 55 μL from each syringe. The increase in absorbance was monitored in a linear-time base for 10 s. At least four traces were acquired for each reaction, with 1000 data points collected per trace. Controls lacked PRPP.

[4] = ATP and histidine (60 μM in syringe) rapidly mixed with PaATPPRT preincubated with PRPP
[5] = ATP rapidly mixed with PaATPPRT preincubated with PRPP and histidine (60 μM in syringe)

T1 sequence (Q4FTX3 whole entry): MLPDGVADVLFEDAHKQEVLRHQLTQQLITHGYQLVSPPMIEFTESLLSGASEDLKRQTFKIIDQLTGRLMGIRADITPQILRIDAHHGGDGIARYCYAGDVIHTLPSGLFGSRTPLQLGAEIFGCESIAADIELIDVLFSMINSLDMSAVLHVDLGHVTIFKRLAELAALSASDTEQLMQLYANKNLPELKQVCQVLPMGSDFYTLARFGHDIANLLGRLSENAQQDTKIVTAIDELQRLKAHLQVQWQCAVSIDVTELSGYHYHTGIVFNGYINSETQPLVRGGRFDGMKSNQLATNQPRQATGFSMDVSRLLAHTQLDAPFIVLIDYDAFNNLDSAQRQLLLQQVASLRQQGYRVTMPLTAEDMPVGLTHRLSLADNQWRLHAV
T1 sequence (Q4FQF7 whole entry): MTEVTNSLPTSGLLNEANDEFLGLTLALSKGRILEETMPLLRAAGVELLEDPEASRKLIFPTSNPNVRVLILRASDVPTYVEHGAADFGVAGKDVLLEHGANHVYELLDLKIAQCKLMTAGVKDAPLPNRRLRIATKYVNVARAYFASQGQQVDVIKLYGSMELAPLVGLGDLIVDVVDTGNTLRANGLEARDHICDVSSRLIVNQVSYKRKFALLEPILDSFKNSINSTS
T2 sequence (Q4FQF7 whole entry): as above
T2 sequence (Q4FTX3 whole entry Y263F): as the sequence (Q4FTX3 whole entry) above, with Y263F counted along it
T3 sequence (Q4FTX3 whole entry): as the sequence (Q4FTX3 whole entry) above

## Nc1ncnc2c1ncn2[C@@H]1O[C@H](COP(=O)(O)OP(=O)(O)O)[C@@H](O)[C@H]1O [ADP, adenosine 5′-diphosphate]
PaATPPRT [1]
  kcat: 2.6 ± 0.4 s^–1

## N[C@@H](Cc1c[nH]cn1)C(=O)O [Histidine, L-histidine]
Y263F-PaATPPRT; 320 μM histidine, 5.6 mM ATP, 2 mM PRPP, 20 °C
  vi/v0 (ratio of initial rates in presence and absence of inhibitor): 0.250 ± 0.001
Y263F-PaATPPRT; 320 μM histidine, from vi/v0 of mutant and WT
  susceptibility to inhibition, Y263F-PaATPPRT less susceptible than WT-PaATPPRT: > 3 fold
Y263F-PaATPPRT; read-out: enzyme activity lost due to histidine inhibition
  inhibition at 320 µM: 75%
PaATPPRT [2]; 5.6 mM ATP, 2 mM PRPP, 20 °C, fit to eq 2
  h (Hill slope): 1.30 ± 0.04
PaATPPRT [2]; ADP (5.6 mM) as the substrate, 2 mM PRPP
  h (Hill slope): 1.32 ± 0.09
PaATPPRT [2]; IC50, 5.6 mM ATP, 2 mM PRPP, 20 °C, fit to eq 2
  IC50: 35.5 ± 0.8 µM
PaATPPRT [2]; IC50, ADP (5.6 mM) as the substrate, 2 mM PRPP
  IC50: 31 ± 1 µM
PaATPPRT [2]; Kis (slope inhibition constant), against ATP, global fit to eq 3
  Ki: 56 ± 25 µM
PaATPPRT [2]; Kis (slope inhibition constant), against PRPP, global fit to eq 3
  Ki: 22 ± 6 µM
PaATPPRT [2]; Kis, against ATP, linear regression of slope replot of individually fitted double-reciprocal curves
  Ki: 60 µM
PaATPPRT [2]; Kis, against PRPP, linear regression of slope replot of individually fitted double-reciprocal curves
  Ki: 30 µM
PaATPPRT [2]; WT-PaATPPRT, 320 μM histidine, 5.6 mM ATP, 2 mM PRPP, 20 °C
  vi/v0 (ratio of initial rates in presence and absence of inhibitor): 0.070 ± 0.004
PaATPPRT [2]; against ATP, global fit to eq 3
  Kii (intercept inhibition constant): 36 ± 5 µM
PaATPPRT [2]; against ATP
  Kii: 40 µM
PaATPPRT [2]; against PRPP, global fit to eq 3
  Kii (intercept inhibition constant): 38 ± 7 µM
PaATPPRT [2]; against PRPP
  Kii: 26 µM
PaATPPRT [2]; against both substrates (PRPP and ATP)
  inhibition mechanism: noncompetitive
PaHisZ; free PaHisZ 9.4 μM, Tm dependence on histidine 0–8 mM, fit to eq 5, read-out: KD (apparent equilibrium dissociation constant, PaHisZ–histidine complex)
  Kd: 2800 ± 800 µM
PaHisZ; free PaHisZ, histidine 0–8 mM
  effect on Tm of PaHisZ: increases
PaHisGS
  sensitivity of PaHisGS to histidine: insensitive
PaATPPRT [3]; [4]
  amplitude of the burst phase: 3.49 ± 0.01 µM
  steady-state rate: 7.56 ± 0.01 μM s^–1
PaATPPRT [3]; [5]
  burst amplitude: 0.53 ± 0.01 µM
  steady-state rate: 7.83 ± 0.01 μM s^–1

## N[C@@H](Cc1cccs1)C(=O)O [TIH, 3-(2-thienyl)-L-alanine]
PaATPPRT [2]; 4 mM TIH, saturating concentrations of both substrates
  effect on PaATPPRT catalysis: no effect
